These results are taken from US10065950B2, “Substituted thiazoles as HIV integrase inhibitors” (Japan Tobacco Inc., priority 2010, dated 2018).

A word on the IC50: it is the concentration needed to halve the response being measured.

The test has as its target HIV-1 pNL4-3 integrase (Human immunodeficiency virus type 1 group M subtype B (isolate NY5) (HIV-1), UniProt P12497). In words: Determination of enzyme (HIV integrase) inhibitory activity. As to conditions: calculated from inhibition rate (fluorescence). It is filed as biochemical. The procedure: The following explains evaluation methods of the HIV integrase inhibitory activity of the compound of the present invention.
A full-length gene sequence (Accession No.: M19921) of HIV-1 pNL4-3 integrase was inserted into restriction enzyme Nde I and Xho I sites of plasmid pET21a(+) (manufactured by Novagen) to construct an integrase expression vector pET21a-IN-Wild type.
Escherichia coli recombinant BL21(DE3) transformed with plasmid pET21a-IN-Wild type obtained in (i) was shake cultured at 30° C. in a liquid medium containing ampicillin. When the culture reached the logarithmic growth phase, isopropyl-β-D-thiogalactopyranoside was added to promote expression of integrase gene. The culture was continued for 5 hr to promote accumulation of the integrase protein. The recombinant E. coli was collected in pellets by centrifugal separation and preserved at −80° C.
This Escherichia coli was suspended in Lysis buffer (50 mM Tris-HCl (pH 7.6), 10 mM MgCl2, 5 mM DTT), and disrupted by repeating treatments of pressurization and depressurization, and insoluble fraction was collected by centrifugation at 4° C., 18,000 rpm for 60 min. This was suspended in Lysis buffer containing a protease inhibitor, […] and 10 mM CHAPS were added, and the mixture was stirred at 4° C. for 30 min. Water-soluble fraction was collected by centrifugation at 4° C., 9,000 rpm for 30 min. The obtained fraction was diluted with a column buffer (50 mM Tris-HCl (pH 7.6), 1 mM DTT, 10% Glycerol, 10 mM CHAPS) to 5-fold, and the mixture was applied to heparin column (HiPrep 16/10 Heparin FF column: manufactured by GE Healthcare Bio-Sciences). Using a column buffer containing 1M NaCl, a protein was eluted with 0-1M NaCl concentration gradient, and an eluted fraction containing an integrase protein was collected. The obtained fraction was diluted 5-fold with a column buffer (50 mM Tris-HCl (pH 7.6), 1 mM DTT, 10% Glycerol, 10 mM CHAPS), and the mixture was applied to cation exchange column (Mono-S column: manufactured by GE Healthcare Bio-Sciences). Using a column buffer containing 1M NaCl, a protein was eluted with 0-1M NaCl concentration gradient, and an eluted fraction containing an integrase protein was collected. The obtained fractions of the integrase protein were collected, and preserved at −80° C.
The following DNA synthesized by FASMAC was dissolved in TE buffer (10 mM Tris-hydrochloric acid (pH 8.0), 1 mM EDTA) and mixed with donor DNA, target DNA, and each complementary strand (+ and − strands) to 1 μM. The mixture was heated at 95° C. for 5 min, 80° C. for 10 min, 70° C. for 10 min, 60° C. for 10 min, 50° C. for 10 min and 40° C. for 10 min and kept at 25° C. to give a double stranded DNA, which was used for the test.
Donor DNA (+strand having biotin attached to the 5′ terminal)
Target DNA (+, − strands both having digoxigenin attached to the 3′ terminal)
The donor DNA was diluted with TE buffer to 20 nM, of which 50 μL was added to each well of streptavidin-coated black plate (manufactured by PIAS Corporation) and allowed to adsorb at 37° C. for 20 min. The plate was washed with phosphate buffer (Dulbecco's PBS, Sanko Junyaku Co., Ltd.) containing 0.1% Tween 20 and phosphate buffer. Then, an enzyme reaction mixture (70 μL), a test substance (10 μL) diluted with the enzyme reaction mixture and 0.75 μM integrase protein (10 μL) were added to each well and the mixture was reacted at 37° C. for 60 min. composition of enzyme reaction mixture: 30 mM MOPS (3-morpholinopropanesulfonic acid), 5 mM magnesium chloride, 3 mM DTT (dithiothreitol), 0.1 mg/mL BSA (bovine serum albumin), 5% glycerol, 10% DMSO (dimethyl sulfoxide), 0.01% Tween 20.
Then, 25 nM target DNA (10 μL) was added, and the mixture was reacted at 37° C. for 20 min and washed with phosphate buffer containing 0.1% Tween 20 to stop the reaction. […]
On to `CCN1C[C@H](COCCOC)n2cc(-c3nnc(Cc4ccc(F)cc4F)s3)c(=O)c(O)c2C1=O` [Example 125], for which the IC50 was 11 nM.

In the case of `CCNC(=O)C1(C)CN(C(C)C)C(=O)c2c(O)c(=O)c(-c3ncc(Cc4ccc(F)cc4)s3)cn21` (stereo not shown) [Example 105], the IC50 is 17 nM.

`CCNC(=O)[C@@]1(C)CN(C(C)C)C(=O)c2c(O)c(=O)c(-c3nnc(Cc4ccc(F)cc4)s3)cn21` [Example 180]: the IC50 was 10 nM.

As to `CCC(OC)[C@H]1CN(C(C)C)C(=O)c2c(O)c(=O)c(-c3nnc(Cc4ccc(F)cc4)s3)cn21` (stereo partly shown) [Example 383], the IC50 was 7.9 nM.

In the case of `CCN1C[C@H](COC)n2cc(-c3nnc(Cc4ccc(F)cc4F)s3)c(=O)c(O)c2C1=O` [Example 97], the IC50 was 6.6 nM.

For `CCC(CC)N1C[C@H](COC)n2cc(-c3nnc(Cc4ccc(F)cc4)s3)c(=O)c(O)c2C1=O` [Example 337], the IC50 is 17 nM.

Turning to `CC(C)N1C[C@H](Cn2cnnn2)n2cc(-c3nnc(Cc4ccc(F)cc4)s3)c(=O)c(O)c2C1=O` [Example 359], the IC50 was 4.8 nM.

In the case of `CC(C)N1CC(C)(C(=O)N2CCOCC2)n2cc(-c3ncc(Cc4ccc(F)cc4F)s3)c(=O)c(O)c2C1=O` (stereo not shown) [Example 52], the IC50 was 13 nM.

In the case of `COCCOC[C@H]1CN(C(C)C)C(=O)c2c(O)c(=O)c(-c3nnc(Cc4ccc(F)cc4F)s3)cn21` [Example 44], the IC50 is 8.1 nM.

As to `COC[C@@H]1[C@@H](C)n2cc(-c3nnc(Cc4ccc(F)cc4)s3)c(=O)c(O)c2C(=O)N1C(C)C` [Example 304], the IC50 was 9.1 nM.

On to `CNC(=O)C1(C)CN(C(C)C)C(=O)c2c(O)c(=O)c(-c3ncc(Cc4ccc(F)cc4F)s3)cn21` (stereo not shown) [Example 29], for which the 50% inhibitory concentration (IC50) is 10 nM.

For `CCCOC[C@H]1CN(C(C)C)C(=O)c2c(O)c(=O)c(-c3nnc(Cc4ccc(F)cc4)s3)cn21` [Example 363], the IC50 is 8.7 nM.

For `COC[C@H]1CN([C@@H](C)C2CC2)C(=O)c2c(O)c(=O)c(-c3nnc(Cc4ccc(F)cc4)s3)cn21` [Example 316], the half-inhibitory concentration (IC50) was 12 nM.

For `CC(C)N1C[C@](C)(C(=O)N2CC[C@@H](O)C2)n2cc(-c3nnc(Cc4ccc(F)cc4)s3)c(=O)c(O)c2C1=O` [Example 205], the IC50 is 13 nM.

In the case of `CCN1C(=O)c2c(O)c(=O)c(-c3ncc(Cc4ccc(F)cc4)s3)cn2C[C@@]1(C)C(=O)N1CCCC1` [Example 254], the IC50 was 7.6 nM.

As for `CO[C@@H]1CCN(C(=O)[C@@]2(C)CN(C(C)C)C(=O)c3c(O)c(=O)c(-c4nnc(Cc5ccc(F)cc5)s4)cn32)C1` [Example 211], the IC50 is 16 nM.

For the compound `CCOc1cc(F)ccc1Cc1nnc(-c2cn3c(c(O)c2=O)C(=O)N(C(C)C)C[C@@H]3COC)s1` [Example 219], the half-inhibitory concentration (IC50) is 15 nM.

Regarding `CCN1C(=O)c2c(O)c(=O)c(-c3ncc(Cc4ccc(F)cc4)s3)cn2C[C@@]1(C)C(=O)NC` [Example 252], the IC50 was 9.2 nM.

Regarding `COC[C@H]1[C@H](C)n2cc(-c3nnc(Cc4ccc(F)cc4)s3)c(=O)c(O)c2C(=O)N1C(C)C` [Example 299], the 50% inhibitory concentration (IC50) was 9.8 nM.

As to `CC[C@@H](C)N1C[C@H](COC)n2cc(-c3nnc(Cc4ccc(F)cc4F)s3)c(=O)c(O)c2C1=O` [Example 147], the IC50 was 8.3 nM.

In the case of `CN(C)C(=O)[C@@]1(C)CN(C(C)(C)C)C(=O)c2c(O)c(=O)c(-c3nnc(Cc4ccc(F)cc4)s3)cn21` [Example 181], the half-maximal inhibitory concentration (IC50) is 14 nM.

Regarding `COCCOC[C@@H]1Cn2cc(-c3nnc(Cc4ccc(F)cc4F)s3)c(=O)c(O)c2C(=O)N1C(C)C` [Example 54], the IC50 was 7.5 nM.

As to `CC(C)N1C[C@](C)(C(=O)N2CCOCC2)n2cc(-c3nnc(Cc4ccc(F)cc4)s3)c(=O)c(O)c2C1=O` [Example 203], the IC50 is 13 nM.

With `COCCOC[C@H]1CN(C2CCC2)C(=O)c2c(O)c(=O)c(-c3nnc(Cc4ccc(F)cc4F)s3)cn21` [Example 86], the IC50 was 9.5 nM.

Consider `CC(=O)N(C)C[C@@H]1Cn2cc(-c3nnc(Cc4ccc(F)cc4)s3)c(=O)c(O)c2C(=O)N1C(C)C` [Example 163], for which the IC50 was 7.7 nM.

In the case of `CNC(=O)C1Cn2cc(-c3nnc(Cc4ccc(F)cc4F)s3)c(=O)c(O)c2C(=O)N1C(C)C` (stereo not shown) [Example 51], the IC50 was 5.7 nM.

For `CCC(OC)[C@H]1CN(C(C)C)C(=O)c2c(O)c(=O)c(-c3nnc(Cc4ccc(F)cc4)s3)cn21` (stereo partly shown) [Example 382], the IC50 was 8.7 nM.

Turning to `CC(C)N1CC(CNS(C)(=O)=O)n2cc(-c3ncc(Cc4ccc(F)cc4F)s3)c(=O)c(O)c2C1=O` (stereo not shown) [Example 78], the half-maximal inhibitory concentration (IC50) was 8.9 nM.

As to `CCNC(=O)[C@]1(COCCOC)CN(C(C)C)C(=O)c2c(O)c(=O)c(-c3ncc(Cc4ccc(F)cc4)s3)cn21` [Example 394], the IC50 was 14 nM.

Turning to `CCC(=O)N(C)CC1(C)CN(C(C)C)C(=O)c2c(O)c(=O)c(-c3ncc(Cc4ccc(F)cc4F)s3)cn21` (stereo not shown) [Example 7], the IC50 was 13 nM.

Turning to `CCN1C(=O)c2c(O)c(=O)c(-c3nnc(Cc4ccc(F)cc4)s3)cn2C[C@H]1C(C)C` [Example 286], the IC50 was 7.8 nM.

On to `CC(C)N1CC(C)(CO)n2cc(-c3ncc(Cc4ccc(F)cc4F)s3)c(=O)c(O)c2C1=O` (stereo not shown) [Example 20], for which the IC50 is 17 nM.

`CO[C@@H](C)COC[C@H]1CN(C2CC2)C(=O)c2c(O)c(=O)c(-c3nnc(Cc4ccc(F)cc4)s3)cn21` [Example 384]: the IC50 was 12 nM.

Turning to `CCN1C(=O)c2c(O)c(=O)c(-c3ncc(Cc4ccc(F)cc4)s3)cn2C[C@@]1(C)C(=O)N(C)C` [Example 253], the IC50 was 7.7 nM.

In the case of `CNC(=O)C1CN(C)C(=O)c2c(O)c(=O)c(-c3ncc(Cc4ccc(F)cc4F)s3)cn21` (stereo not shown) [Example 160], the IC50 is 6.1 nM.

For `CC(C)N1C(=O)c2c(O)c(=O)c(-c3nnc(Cc4ccc(F)cc4)s3)cn2C[C@@]1(C)C(=O)N1CCOCC1` [Example 311], the IC50 was 9.7 nM.

For `COC1CN(C(=O)[C@@]2(C)CN([C@@H](C)C3CC3)C(=O)c3c(O)c(=O)c(-c4ncc(Cc5ccc(F)cc5)s4)cn32)C1` [Example 274], the IC50 is 12 nM.

`CC[C@H](C)N1C[C@H](COC)n2cc(-c3nnc(Cc4ccc(F)cc4F)s3)c(=O)c(O)c2C1=O` [Example 135]: the IC50 is 12 nM.

In the case of `CCN1C(=O)c2c(O)c(=O)c(-c3nnc(Cc4ccc(F)cc4)s3)cn2C[C@@H]1COC` [Example 113], the IC50 is 13 nM.

For the compound `CC(C)N1CC(C)(C(=O)N2CCCC2)n2cc(-c3ncc(Cc4ccc(F)cc4F)s3)c(=O)c(O)c2C1=O` (stereo not shown) [Example 39], the IC50 is 10 nM.

For the compound `CNC(=O)CC1Cn2cc(-c3nnc(Cc4ccc(F)cc4F)s3)c(=O)c(O)c2C(=O)N1C(C)C` (stereo not shown) [Example 81], the IC50 is 7.5 nM.

Regarding `CC(C)[C@H]1CN(C(C)C)C(=O)c2c(O)c(=O)c(-c3nnc(Cc4ccc(F)cc4)s3)cn21` [Example 194], the concentration for half-maximal inhibition (IC50) was 8.2 nM.

Consider `CC(C)N1C[C@H](C)n2cc(-c3nnc(Cc4ccc(F)cc4F)s3)c(=O)c(O)c2C1=O` [Example 149], for which the IC50 was 5.9 nM.

On to `COC[C@H]1Cn2cc(-c3nnc(Cc4ccc(F)cc4F)s3)c(=O)c(O)c2C(=O)N1C1CCC1` [Example 98], for which the IC50 was 7.5 nM.

Take `COC[C@@H]1Cn2cc(-c3nnc(Cc4ccc(F)cc4F)s3)c(=O)c(O)c2C(=O)N1CC1CC1` [Example 126]: the IC50 was 7.3 nM.

For `CC[C@H](C)N1C[C@@H](COC)n2cc(-c3nnc(Cc4ccc(F)cc4)s3)c(=O)c(O)c2C1=O` [Example 166], the half-maximal inhibitory concentration (IC50) was 12 nM.
